Assay: Non-hygroscopicity test (storage in stability chambers, water content)
Assay type: physicochemical
Details: mesylate; for Water Content after 3 months (%): 40°C at humidity of 75%, for 3 months; for Initial Water Content (%): before storage
Method: In the present invention, samples of obtained crystalline forms are stored […] in stability chambers under following conditions of 40°C and humidity of 75%, for 3 months to support non-hygroscopic nature of novel forms of imatinib mesylate.
Non-hygroscopicity test results are listed below in table 1.

For `CS(=O)(=O)O.Cc1ccc(NC(=O)c2ccc(CN3CCN(C)CC3)cc2)cc1Nc1nccc(-c2cccnc2)n1` [Polymorph B sample, 4-[(4-Methyl-1-piperazinyl)methyl]-N-[4-methyl-3-[[4-(3-pyridinyl)-2-pyrimidinyl]amino]phenyl]-benzamide mesylate], the “Water Content after 3 months (%)” value was 0.48% and the “Initial Water Content (%)” value was 0.37%.
In the case of `CS(=O)(=O)O.Cc1ccc(NC(=O)c2ccc(CN3CCN(C)CC3)cc2)cc1Nc1nccc(-c2cccnc2)n1` [Polymorph M sample, 4-[(4-Methyl-1-piperazinyl)methyl]-N-[4-methyl-3-[[4-(3-pyridinyl)-2-pyrimidinyl]amino]phenyl]-benzamide mesylate], the “Water Content after 3 months (%)” value is reported as 0.48% and the “Initial Water Content (%)” value is reported as 0.38%.
With `CS(=O)(=O)O.Cc1ccc(NC(=O)c2ccc(CN3CCN(C)CC3)cc2)cc1Nc1nccc(-c2cccnc2)n1` [Polymorph P sample, 4-[(4-Methyl-1-piperazinyl)methyl]-N-[4-methyl-3-[[4-(3-pyridinyl)-2-pyrimidinyl]amino]phenyl]-benzamide mesylate] the “Water Content after 3 months (%)” value was 0.50% and the “Initial Water Content (%)” value was 0.42%.
In the case of `CS(=O)(=O)O.Cc1ccc(NC(=O)c2ccc(CN3CCN(C)CC3)cc2)cc1Nc1nccc(-c2cccnc2)n1` [Polymorph Y sample, 4-[(4-Methyl-1-piperazinyl)methyl]-N-[4-methyl-3-[[4-(3-pyridinyl)-2-pyrimidinyl]amino]phenyl]-benzamide mesylate], the “Water Content after 3 months (%)” value is reported as 0.50% and the “Initial Water Content (%)” value is reported as 0.40%.
For `CS(=O)(=O)O.Cc1ccc(NC(=O)c2ccc(CN3CCN(C)CC3)cc2)cc1Nc1nccc(-c2cccnc2)n1` [Polymorph β reference sample, 4-[(4-Methyl-1-piperazinyl)methyl]-N-[4-methyl-3-[[4-(3-pyridinyl)-2-pyrimidinyl]amino]phenyl]-benzamide mesylate, reference compound], the “Water Content after 3 months (%)” value was 0.60% and the “Initial Water Content (%)” value was 0.34%.
